For eight molecules, TGI results are on record in PubChem BioAssay (NCI).

Assay in all cases: DTP human tumour cell line panel, 48 h
Experiment [1] concerns UACC-62 melanoma.
For experiment [2], the system named is HL-60(TB) leukemia.
The test system of experiment [3] is K-562 leukemia.
Experiment [4] relates to RXF 393 renal.
The test system of experiment [5] is SF-268 CNS.
Experiment [6] has as its system OVCAR-8 ovarian.
Experiment [7] has as its system COLO 205 colon.
For experiment [8], the system named is MOLT-4 leukemia.
Experiment [9] deals with CCRF-CEM leukemia.
Experiment [10] concerns SF-539 CNS.
For experiment [11], the system named is UO-31 renal.
The test system of experiment [12] is KM12 colon.
The test system of experiment [13] is SW-620 colon.
In experiment [14] the test system is NCI/ADR-RES ovarian.
Experiment [15] has as its system UACC-257 melanoma.
The subject of experiment [16] is ACHN renal.

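Exposure lasted 48 hours, with cells grown in 96-well plates and compounds tested at five concentrations. At the TGI there is no net growth.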

In the case of `COC(=O)C1C2OC(C)(C)OC2CN1S(=O)(=O)c1ccc(C)cc1` (stereo not drawn), the concentration for total growth inhibition (TGI) in experiment [1], in experiment [2], in experiment [3], in [4], in experiment [5] and in experiment [6] was above 100 µM each time. Further, the TGI in [7], in [8], in [9], in experiment [10], in experiment [11] and in experiment [12] was above 100 µM each time. For the same molecule, the TGI in experiment [13], in [14], in experiment [15] and in [16] was above 100 µM throughout.

Take `COc1ccc(NC(=S)Nc2cc(C)ccn2)cc1`: the TGI in experiment [1], in experiment [2], in [3], in experiment [4], in experiment [5] and in [6] was above 100 µM throughout. For the same molecule, the TGI in experiment [7], in experiment [8], in experiment [9], in [10], in experiment [11] and in [12] was above 100 µM each time. The TGI in experiment [13], in [14], in [15] and in experiment [16] was above 100 µM in each case.

Take `COc1nn(Cc2ccccn2)c2ccc([N+](=O)[O-])cc12`: the TGI is above 100 µM in experiment [1]; 64.1 µM in experiment [2]; above 100 µM in [3]; above 100 µM in experiment [4]; above 100 µM in experiment [5]; above 100 µM in [6]. For the same molecule, the TGI in [7], in [8], in experiment [9], in [10], in [11] and in experiment [12] was above 100 µM throughout. The TGI in experiment [13], in [14], in experiment [15] and in experiment [16] was above 100 µM in each case.

In the case of `CC(C)OC(=O)c1ccc(NCC2=CC(=O)C=CC2=O)cc1`, the TGI in experiment [1] came out at 31.4 µM; in experiment [2], 5.24 µM; in experiment [3], 7.39 µM; in [4], 26.2 µM; in experiment [5], 26.1 µM; in [6], 29.7 µM. The TGI in [7] was determined as 13.7 µM; in experiment [8], 6.14 µM; in [9] it was 6.48 µM; in [10], 22.4 µM; in experiment [11], 21.8 µM; in [12] it was 41.8 µM. Also, the TGI in experiment [13] was found to be 26.5 µM; in experiment [14], 30.7 µM; in experiment [15], 27.2 µM; in [16] it was 24.3 µM.

For the molecule `O=C1c2ccccc2-c2nnc(-c3ccc([N+](=O)[O-])cc3)cc21`, the total growth inhibition concentration (TGI) in experiment [1], in experiment [2], in experiment [3], in experiment [4], in [5] and in experiment [6] was above 10 µM throughout. For the same molecule, the TGI in experiment [7], in experiment [8], in experiment [9], in [10], in [11] and in experiment [12] was above 10 µM in each case. Besides, the concentration for total growth inhibition (TGI) in [13], in [14], in experiment [15] and in experiment [16] was above 10 µM in each case.

As for `O=C(CP(=O)(c1ccccc1)c1ccccc1)c1cccc(C(=O)CP(=O)(c2ccccc2)c2ccccc2)c1`, the TGI is above 100 µM in experiment [1]; above 100 µM in [2]; above 100 µM in [3]; 52.7 µM in experiment [4]; above 100 µM in experiment [5]; above 100 µM in [6]. Further, the TGI in experiment [7], in experiment [8], in experiment [9], in [10], in experiment [11] and in [12] was above 100 µM in each case. The TGI in experiment [13], in experiment [14], in experiment [15] and in experiment [16] was above 100 µM each time.

As for `CC(NC(=O)OCc1ccccc1)NC(=O)OC(C)(C)C` (stereo not drawn), the TGI in experiment [1] is above 100 µM; in experiment [2], above 100 µM; in experiment [3], above 100 µM; in experiment [4], 84.3 µM; in experiment [5], above 100 µM; in experiment [6] it was above 100 µM. For the same molecule, the total growth inhibition concentration (TGI) in [7], in experiment [8], in experiment [9], in experiment [10], in [11] and in experiment [12] was above 100 µM in each case. The total growth inhibition concentration (TGI) in experiment [13], in [14], in experiment [15] and in experiment [16] was above 100 µM in each case.

Regarding `[O-][n+]1nc(N2CCOCC2)nc2ccccc21`, the TGI in [1], in experiment [2], in experiment [3], in [4], in experiment [5] and in experiment [6] was above 100 µM throughout. Besides, the TGI in experiment [7], in experiment [8], in experiment [9], in experiment [10], in [11] and in experiment [12] was above 100 µM each time. For the same molecule, the TGI in experiment [13], in [14], in experiment [15] and in [16] was above 100 µM each time.

Usually TGI stands for the concentration giving total growth inhibition. The low end stands for more potent growth arrest, the high end for less potent growth arrest.
